Data from patent US12528788B2, “Pesticidally active benzene- and azine-amide compounds” (SYNGENTA CROP PROTECTION AG, priority 2018, dated 2026).

How the values were obtained:
Type in all cases: in vivo
Myzus persicae [1] = test: Example B13: Myzus persicae (green peach aphid), 96-well sucrose solution; conditions: 120 h, application rate of 50 ppm, 5 days after infestation
Source text: Example B13: Myzus persicae (Green Peach Aphid)
Test compounds prepared from 10′000 ppm DMSO stock solutions were applied by a liquid handling robot into 96-well microtiter plates and mixed with a sucrose solution. Parafilm was stretched over the 96-well microtiter plate and a plastic stencil with 96 holes was placed onto the plate. Aphids were sieved into the wells directly onto the Parafilm. The infested plates were closed with a gel blotting card and a second plastic stencil and then turned upside down. The samples were assessed for mortality 5 days after infestation.

Diabrotica balteata = test: Example B1: Diabrotica balteata (corn root worm), maize sprouts sprayed, L2 larvae; conditions: 96 h, application rate of 200 ppm, 4 days after infestation, L2 larvae on maize sprouts, read-out: control in at least one of the two categories (mortality or growth inhibition)
Method: Example B1: Diabrotica balteata (Corn Root Worm)
Maize sprouts placed onto an agar layer in 24-well microtiter plates were treated with aqueous test solutions prepared from 10′000 ppm DMSO stock solutions by spraying. After drying, the plates were infested with L2 larvae (6 to 10 per well). The samples were assessed for mortality and growth inhibition in comparison to untreated samples 4 days after infestation.

Plutella xylostella [2] = test: Example B14: Plutella xylostella (diamondback moth), 96-well artificial diet; conditions: 216 h, application rate of 500 ppm, 9 days after infestation
Method: Example B14: Plutella xylostella (Diamondback Moth)
96-well microtiter plates containing artificial diet were treated with aqueous test solutions, prepared from 10′000 ppm DMSO stock solutions, by a liquid handling robot. After drying, eggs (˜30 per well) were infested onto a netted lid which was suspended above the diet. The eggs hatch and L1 larvae move down to the diet. The samples were assessed for mortality 9 days after infestation.

Spodoptera littoralis [3] = test: Example B9: Spodoptera littoralis (Egyptian cotton leaf worm), cotton leaf discs sprayed, L1 larvae; conditions: foliar, 72 h, application rate of 200 ppm, 3 days after infestation, read-out: control in at least one of the three categories (mortality, anti-feedant effect or growth inhibition)
Spodoptera littoralis [4] = test: Example B10: Spodoptera littoralis (Egyptian cotton leaf worm), uptake by lettuce roots from agar; conditions: 144 h, test rate of 12.5 ppm, 6 days after infestation, lettuce grown on treated agar, read-out: control in at least one of the three categories (mortality, anti-feeding, or growth inhibition)
Source text: Example B10: Spodoptera littoralis (Egyptian Cotton Leaf Worm)
Test compounds were applied by pipette from 10′000 ppm DMSO stock solutions into 24-well plates and mixed with agar. Lettuce seeds were placed onto the agar and the multi well plate was closed by another plate which contained also agar. After 7 days the compound was absorbed by the roots and the lettuce grew into the lid plate. The lettuce leaves were then cut off into the lid plate. Spodoptera eggs were pipetted through a plastic stencil onto a humid gel blotting paper and the lid plate was closed with it. The samples were assessed for mortality, anti-feedant effect and growth inhibition in comparison to untreated samples 6 days after infestation.

Chilo suppressalis = test: Example B4: Chilo suppressalis (striped rice stemborer), artificial diet, L2 larvae; conditions: 144 h, application rate of 200 ppm, 6 days after infestation, read-out: control in at least one of the three categories (mortality, anti-feedant effect or growth inhibition)
Method: Example B4: Chilo suppressalis (Striped Rice Stemborer)
24-well microtiter plates with artificial diet were treated with aqueous test solutions prepared from 10′000 ppm DMSO stock solutions by pipetting. After drying, the plates were infested with L2 larvae (6-8 per well). The samples were assessed for mortality, anti-feeding effect, and growth inhibition in comparison to untreated samples 6 days after infestation. Control of Chilo suppressalis by a test sample is given when at least one of the categories mortality, anti-feedant effect, and growth inhibition is higher than the untreated sample.

Euschistus heros = test: Example B2: Euschistus heros (neotropical brown stink bug), soybean leaves sprayed, N2 nymphs; conditions: 120 h, application rate of 200 ppm, 5 days after infestation, N2 nymphs on soybean leaves, read-out: control in at least one of the two categories (mortality or growth inhibition)
Method: Example B2: Euschistus heros (Neotropical Brown Stink Bug)
Soybean leaves on agar in 24-well microtiter plates were sprayed with aqueous test solutions prepared from 10′000 ppm DMSO stock solutions. After drying the leaves were infested with N2 nymphs. The samples were assessed for mortality and growth inhibition in comparison to untreated samples 5 days after infestation.

Plutella xylostella [5] = test: Example B5: Plutella xylostella (diamond back moth), artificial diet, 24-well, eggs; conditions: 192 h, application rate of 200 ppm, 8 days after infestation, read-out: control in at least one of the two categories (mortality or growth inhibition)
Method: Example B5: Plutella xylostella (Diamond Back Moth)
24-well microtiter plates with artificial diet were treated with aqueous test solutions prepared from 10′000 ppm DMSO stock solutions by pipetting. After drying, Plutella eggs were pipetted through a plastic stencil onto a gel blotting paper and the plate was closed with it. The samples were assessed for mortality and growth inhibition in comparison to untreated samples 8 days after infestation.

Myzus persicae [6] = test: Example B8: Myzus persicae (green peach aphid) intrinsic activity; conditions: 120 h, test rate of 12 ppm, 5 days after infestation, sucrose solution
Source text: Example B8: Myzus persicae (Green Peach Aphid). Intrinsic Activity
Test compounds prepared from 10′000 ppm DMSO stock solutions were applied by pipette into 24-well microtiter plates and mixed with sucrose solution. The plates were closed with a stretched Parafilm. A plastic stencil with 24 holes was placed onto the plate and infested pea seedlings were placed directly on the Parafilm. The infested plate was closed with a gel blotting paper and another plastic stencil and then turned upside down. The samples were assessed for mortality 5 days after infestation.

Myzus persicae [7] = test: Example B7: Myzus persicae (green peach aphid) systemic activity; conditions: 144 h, test rate of 24 ppm, 6 days after placing seedlings into test solutions, pea seedlings
Method: Example B7: Myzus persicae (Green Peach Aphid) Systemic Activity
Roots of pea seedlings infested with an aphid population of mixed ages were placed directly into aqueous test solutions prepared from 10′000 DMSO stock solutions. The samples were assessed for mortality 6 days after placing seedlings into test solutions.

Tetranychus urticae = test: Example B11: Tetranychus urticae (two-spotted spider mite) feeding/contact activity; conditions: foliar, 192 h, application rate of 200 ppm, 8 days after infestation, bean leaf discs, mixed population (mobile stages)
Method: Example B11: Tetranychus urticae (Two-Spotted Spider Mite): Feeding/Contact Activity
Bean leaf discs on agar in 24-well microtiter plates were sprayed with aqueous test solutions prepared from 10′000 ppm DMSO stock solutions. After drying the leaf discs were infested with a mite population of mixed ages. The samples were assessed for mortality on mixed population (mobile stages) 8 days after infestation.

Myzus persicae [8] = test: Example B6: Myzus persicae (green peach aphid) feeding/contact activity; conditions: foliar, 144 h, application rate of 200 ppm, 6 days after infestation, sunflower leaf discs
Method: Example B6: Myzus persicae (Green Peach Aphid) Feeding/Contact Activity
Sunflower leaf discs were placed onto agar in a 24-well microtiter plate and sprayed with aqueous test solutions prepared from 10′000 ppm DMSO stock solutions. After drying, the leaf discs were infested with an aphid population of mixed ages. The samples were assessed for mortality 6 days after infestation.

CC(NC(=O)c1cc(Cl)cc(OC(F)(F)F)c1)c1nccnc1-c1ncccn1 (stereo not drawn) [Compound P16, 3-chloro-N-[1-(3-pyrimidin-2-ylpyrazin-2-yl)ethyl]-5-(trifluoromethoxy)benzamide]
≥ 80%: mortality at 50 ppm (Myzus persicae [1]) | percent control (mortality or growth inhibition) at 200 ppm (Diabrotica balteata) | mortality at 500 ppm (Plutella xylostella [2]) | percent control (mortality, anti-feedant effect or growth inhibition) at 200 ppm (Spodoptera littoralis [3]) | percent control (mortality, anti-feeding or growth inhibition) at 12.5 ppm (Spodoptera littoralis [4]) | percent control (mortality, anti-feedant effect or growth inhibition) at 200 ppm (Chilo suppressalis) | percent control (mortality or growth inhibition) at 200 ppm (Euschistus heros) | percent control (mortality or growth inhibition) at 200 ppm (Plutella xylostella [5]) | mortality at 12 ppm (Myzus persicae [6])

CC(NC(=O)c1cc(C(F)F)cc(C(F)(F)F)c1)c1nccnc1-c1ncccn1 (stereo not drawn) [Compound P22, 3-(difluoromethyl)-N-[1-(3-pyrimidin-2-ylpyrazin-2-yl)ethyl]-5-(trifluoromethyl)benzamide]
≥ 80%: mortality at 50 ppm (Myzus persicae [1]) | percent control (mortality or growth inhibition) at 200 ppm (Diabrotica balteata) | mortality at 500 ppm (Plutella xylostella [2]) | percent control (mortality, anti-feedant effect or growth inhibition) at 200 ppm (Spodoptera littoralis [3]) | percent control (mortality, anti-feeding or growth inhibition) at 12.5 ppm (Spodoptera littoralis [4]) | percent control (mortality, anti-feedant effect or growth inhibition) at 200 ppm (Chilo suppressalis) | percent control (mortality or growth inhibition) at 200 ppm (Euschistus heros) | percent control (mortality or growth inhibition) at 200 ppm (Plutella xylostella [5]) | mortality at 24 ppm (Myzus persicae [7]) | mortality at 12 ppm (Myzus persicae [6])

CC(NC(=O)c1cc(Br)cc(C(F)(F)F)c1)c1nccnc1-c1ncccn1 (stereo not drawn) [Compound P20, 3-bromo-N-[1-(3-pyrimidin-2-ylpyrazin-2-yl)ethyl]-5-(trifluoromethyl)benzamide]
≥ 80%: mortality at 50 ppm (Myzus persicae [1]) | percent control (mortality or growth inhibition) at 200 ppm (Diabrotica balteata) | mortality at 500 ppm (Plutella xylostella [2]) | percent control (mortality, anti-feedant effect or growth inhibition) at 200 ppm (Spodoptera littoralis [3]) | percent control (mortality, anti-feeding or growth inhibition) at 12.5 ppm (Spodoptera littoralis [4]) | percent control (mortality, anti-feedant effect or growth inhibition) at 200 ppm (Chilo suppressalis) | percent control (mortality or growth inhibition) at 200 ppm (Euschistus heros) | percent control (mortality or growth inhibition) at 200 ppm (Plutella xylostella [5]) | mortality at 12 ppm (Myzus persicae [6])

CC(NC(=O)c1cc(C(F)(F)F)cc(C(F)(F)F)c1)c1nccnc1-c1ccc(F)cn1 (stereo not drawn) [Compound P18, N-[1-[3-(5-fluoro-2-pyridyl)pyrazin-2-yl]ethyl]-3,5-bis(trifluoromethyl)benzamide]
≥ 80%: mortality at 50 ppm (Myzus persicae [1]) | percent control (mortality or growth inhibition) at 200 ppm (Diabrotica balteata) | mortality at 200 ppm (Tetranychus urticae) | mortality at 500 ppm (Plutella xylostella [2]) | percent control (mortality, anti-feedant effect or growth inhibition) at 200 ppm (Spodoptera littoralis [3]) | percent control (mortality, anti-feedant effect or growth inhibition) at 200 ppm (Chilo suppressalis)

CC(NC(=O)c1cc(C(F)(F)F)cc(C(F)(F)F)c1)c1nccnc1-c1ncccn1 (stereo not drawn) [Compound P12, N-[1-(3-pyrimidin-2-ylpyrazin-2-yl)ethyl]-3,5-bis(trifluoromethyl)benzamide]
≥ 80%: percent control (mortality or growth inhibition) at 200 ppm (Diabrotica balteata) | percent control (mortality, anti-feedant effect or growth inhibition) at 200 ppm (Spodoptera littoralis [3]) | percent control (mortality, anti-feedant effect or growth inhibition) at 200 ppm (Chilo suppressalis) | percent control (mortality or growth inhibition) at 200 ppm (Euschistus heros) | percent control (mortality or growth inhibition) at 200 ppm (Plutella xylostella [5]) | mortality at 12 ppm (Myzus persicae [6])

CC(NC(=O)c1cc(Cl)cc(C(F)(F)F)c1)c1nccnc1-c1ncccn1 (stereo not drawn) [Compound P21, 3-chloro-N-[1-(3-pyrimidin-2-ylpyrazin-2-yl)ethyl]-5-(trifluoromethyl)benzamide]
≥ 80%: mortality at 50 ppm (Myzus persicae [1]) | percent control (mortality or growth inhibition) at 200 ppm (Diabrotica balteata) | mortality at 500 ppm (Plutella xylostella [2]) | percent control (mortality, anti-feedant effect or growth inhibition) at 200 ppm (Spodoptera littoralis [3]) | percent control (mortality, anti-feeding or growth inhibition) at 12.5 ppm (Spodoptera littoralis [4]) | percent control (mortality, anti-feedant effect or growth inhibition) at 200 ppm (Chilo suppressalis) | percent control (mortality or growth inhibition) at 200 ppm (Euschistus heros) | percent control (mortality or growth inhibition) at 200 ppm (Plutella xylostella [5]) | mortality at 12 ppm (Myzus persicae [6])

CC(NC(=O)c1cc(OCC(F)(F)F)cc(C(F)(F)F)c1)c1nccnc1-c1ncccn1 (stereo not drawn) [Compound P17, N-[1-(3-pyrimidin-2-ylpyrazin-2-yl)ethyl]-3-(2,2,2-trifluoroethoxy)-5-(trifluoromethyl)benzamide]
≥ 80%: mortality at 50 ppm (Myzus persicae [1]) | mortality at 500 ppm (Plutella xylostella [2]) | percent control (mortality, anti-feedant effect or growth inhibition) at 200 ppm (Spodoptera littoralis [3]) | percent control (mortality, anti-feedant effect or growth inhibition) at 200 ppm (Chilo suppressalis) | percent control (mortality or growth inhibition) at 200 ppm (Euschistus heros) | percent control (mortality or growth inhibition) at 200 ppm (Plutella xylostella [5]) | mortality at 12 ppm (Myzus persicae [6])

CC(NC(=O)c1cc(C(F)(F)F)nc(C(F)(F)F)c1)c1nccnc1-c1ncccn1 (stereo not drawn) [Compound P15, N-[1-(3-pyrimidin-2-ylpyrazin-2-yl)ethyl]-2,6-bis(trifluoromethyl)pyridine-4-carboxamide]
≥ 80%: mortality at 50 ppm (Myzus persicae [1]) | percent control (mortality or growth inhibition) at 200 ppm (Diabrotica balteata) | mortality at 500 ppm (Plutella xylostella [2]) | percent control (mortality, anti-feedant effect or growth inhibition) at 200 ppm (Spodoptera littoralis [3]) | percent control (mortality, anti-feedant effect or growth inhibition) at 200 ppm (Chilo suppressalis) | percent control (mortality or growth inhibition) at 200 ppm (Euschistus heros) | percent control (mortality or growth inhibition) at 200 ppm (Plutella xylostella [5]) | mortality at 12 ppm (Myzus persicae [6])

CC(c1nccnc1-c1ncccn1)N(CC1CC1)C(=O)c1cc(OC(F)F)cc(C(F)(F)F)c1 (stereo not drawn) [Compound P24, N-(cyclopropylmethyl)-3-(difluoromethoxy)-N-[1-(3-pyrimidin-2-ylpyrazin-2-yl)ethyl]-5-(trifluoromethyl)benzamide]
≥ 80%: mortality at 50 ppm (Myzus persicae [1]) | percent control (mortality or growth inhibition) at 200 ppm (Diabrotica balteata) | mortality at 200 ppm (Tetranychus urticae) | percent control (mortality, anti-feedant effect or growth inhibition) at 200 ppm (Spodoptera littoralis [3]) | mortality at 200 ppm (Myzus persicae [8]) | percent control (mortality, anti-feedant effect or growth inhibition) at 200 ppm (Chilo suppressalis) | percent control (mortality or growth inhibition) at 200 ppm (Plutella xylostella [5]) | mortality at 12 ppm (Myzus persicae [6])

CC(NC(=O)c1cc(OCC(F)F)cc(C(F)(F)F)c1)c1nccnc1-c1ncccn1 (stereo not drawn) [Compound P14, 3-(2,2-difluoroethoxy)-N-[1-(3-pyrimidin-2-ylpyrazin-2-yl)ethyl]-5-(trifluoromethyl)benzamide]
≥ 80%: mortality at 50 ppm (Myzus persicae [1]) | mortality at 500 ppm (Plutella xylostella [2]) | percent control (mortality, anti-feedant effect or growth inhibition) at 200 ppm (Spodoptera littoralis [3]) | percent control (mortality, anti-feeding or growth inhibition) at 12.5 ppm (Spodoptera littoralis [4]) | percent control (mortality, anti-feedant effect or growth inhibition) at 200 ppm (Chilo suppressalis) | percent control (mortality or growth inhibition) at 200 ppm (Euschistus heros) | percent control (mortality or growth inhibition) at 200 ppm (Plutella xylostella [5]) | mortality at 24 ppm (Myzus persicae [7]) | mortality at 12 ppm (Myzus persicae [6])
